According to article PMC11346435, “Regulation of Rubisco activity by interaction with chloroplast metabolites” (Biochemical Journal, 2024):
Where two headings read alike, the source gives them in different places.

Experiments:
[1] = target: T1, Rubisco (ribulose-1,5-bisphosphate carboxylase/oxygenase), carbamylated rice enzyme (Oryza sativa, UniProt P0C512); experiment: […]CO2 incorporation assay with purified Rubisco, dose-response and Vmax/Km kinetics; format: biochemical; settings: read-out: % inhibition at 0.3 μM
T1 construct: gene rbcL; Rubisco purified from rice leaves (cv. Nipponbare), L8S8 complex, carbamylated; with Rubisco small subunit (L8S8 holoenzyme)

[2] = target: T1, Rubisco (ribulose-1,5-bisphosphate carboxylase/oxygenase), carbamylated rice enzyme; experiment: biochemical; parameters: 14CO2 incorporation by purified activated rice Rubisco; apparent Ki from Michaelis-Menten kinetics; settings: noncompetitive-like, apparent Ki
Experimental: Water was used as control and for each metabolite an intermediate and the highest concentration were used, with the exceptions of CABP for which the maximum concentration was 0.2 µM (as at the maximum concentration 0.3 µM the activity was very low) and for 3-PGA we used 8 and 12 mM (as these were the concentrations that affected Rubisco activity under saturating substrate concentrations). Basic assay buffer (100 mM Bicine-NaOH, pH 8.2, 20 mM MgCl2 and 2 mM KH2PO4) was sparged with compressed air which passed through soda lime and 1 M NaOH to remove CO2. […] The incubation with metabolite and activity were performed as described above. Vmax and Km were calculated using the Michaelis-Menten equation [58]. […] The incubation and activity were performed as described above and the activity was expressed as % of control samples (where control is 100%). Given the constraints associated with two substrate Rubisco activity and its interaction with tight binding inhibitions, we used a simplistic approximation to estimate apparent inhibitor constants (Kiapp) based on the Michaelis-Menten equations [59] (eqn 1) and on the ‘quotient velocity plot’ [60] (eqn 2). Where [I] is the inhibitor concentration and α was estimated according to the inhibition type: […]

[3] = target: T1, Rubisco (ribulose-1,5-bisphosphate carboxylase/oxygenase), carbamylated rice enzyme; experiment: […]CO2 incorporation assay with purified Rubisco, dose-response and Vmax/Km kinetics; format: biochemical
[4] = target: T1, Rubisco (ribulose-1,5-bisphosphate carboxylase/oxygenase), carbamylated rice enzyme; experiment: […]CO2 incorporation assay with purified Rubisco, dose-response and Vmax/Km kinetics (competitive inhibition); format: biochemical; settings: read-out: % inhibition at 12 mM
[5] = tested on: O=C(COP(=O)(O)O)[C@H](O)[C@H](O)COP(=O)(O)O; experiment: purified protein; settings: Mg2+; carbamylated Lys201 (activator CO2) catalytic site
[6] = Eq. 1 (Michaelis-Menten), read-out: Ki^app (Eq. 1)
[7] = Eq. 2 (quotient velocity plot), read-out: Ki^app (Eq. 2)

T1 sequence (Q0INY7 47-175, other chains not shown): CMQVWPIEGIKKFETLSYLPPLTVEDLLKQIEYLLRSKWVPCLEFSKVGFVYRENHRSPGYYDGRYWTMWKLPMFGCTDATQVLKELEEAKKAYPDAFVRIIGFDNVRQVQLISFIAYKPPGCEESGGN

Ki [2, 6] [nM]	Ki [2, 7] [nM]	Compound	also measured
120 ± 20	100 ± 20	O=C(O)[C@@](O)(COP(=O)(O)O)[C@H](O)[C@H](O)COP(=O)(O)O [CABP]	inhibition at 0.3 µM [1]: ~86%
440 ± 80	440 ± 10	O=C(O)[C@@](O)(COP(=O)(O)O)[C@H](O)[C@H](O)CO [CA1P]	14CO2 incorporation assay with purified Rubisco, dose-response and Vmax/Km kinet [3]: activity decreases by half at 0.3
		O=C(O)[C@H](O)COP(=O)(O)O [3-PGA]	inhibition at 12000 µM [4]: ~30%
		Rubisco (ribulose-1,5-bisphosphate carboxylase/oxygenase), carbamylated rice enzyme (Oryza sativa Japonica Group)	Km [5]: 78.08 ± 3.29 µM
